Here are results for 7 molecules from ChEMBL document CHEMBL3603800, “Novel methyl substituted 1-(5,6-dihydro-[1,2,4]triazolo[4,3-a]pyrazin-7(8H)-yl)methanones are P2X7 antagonists” (Bioorg Med Chem Lett, 2015).

Values after ≈ are worked out from the molar mass of the structure shown.

Data set [1] in a line: Protein binding in human plasma. Type of data set: ADME, cell-free. The following applies: read-out: PPB (converted).
The nature of data set [2]: Protein binding in rat plasma. Type of data set: ADME, cell-free. The settings on record: read-out: PPB (converted).
For data set [3], the target named is Voltage-gated inwardly rectifying potassium channel KCNH2 (Homo sapiens, UniProt Q12809). In words: Displacement of [3H]-astemizole from human ERG channel expressed in HEK293 cells by radioligand competition binding assay. It is filed as cell-based. Background: Displacement assays read how much labelled ligand stays bound in the presence of the test substance.
Sequence of Voltage-gated inwardly rectifying potassium channel KCNH2 (Q12809 whole entry): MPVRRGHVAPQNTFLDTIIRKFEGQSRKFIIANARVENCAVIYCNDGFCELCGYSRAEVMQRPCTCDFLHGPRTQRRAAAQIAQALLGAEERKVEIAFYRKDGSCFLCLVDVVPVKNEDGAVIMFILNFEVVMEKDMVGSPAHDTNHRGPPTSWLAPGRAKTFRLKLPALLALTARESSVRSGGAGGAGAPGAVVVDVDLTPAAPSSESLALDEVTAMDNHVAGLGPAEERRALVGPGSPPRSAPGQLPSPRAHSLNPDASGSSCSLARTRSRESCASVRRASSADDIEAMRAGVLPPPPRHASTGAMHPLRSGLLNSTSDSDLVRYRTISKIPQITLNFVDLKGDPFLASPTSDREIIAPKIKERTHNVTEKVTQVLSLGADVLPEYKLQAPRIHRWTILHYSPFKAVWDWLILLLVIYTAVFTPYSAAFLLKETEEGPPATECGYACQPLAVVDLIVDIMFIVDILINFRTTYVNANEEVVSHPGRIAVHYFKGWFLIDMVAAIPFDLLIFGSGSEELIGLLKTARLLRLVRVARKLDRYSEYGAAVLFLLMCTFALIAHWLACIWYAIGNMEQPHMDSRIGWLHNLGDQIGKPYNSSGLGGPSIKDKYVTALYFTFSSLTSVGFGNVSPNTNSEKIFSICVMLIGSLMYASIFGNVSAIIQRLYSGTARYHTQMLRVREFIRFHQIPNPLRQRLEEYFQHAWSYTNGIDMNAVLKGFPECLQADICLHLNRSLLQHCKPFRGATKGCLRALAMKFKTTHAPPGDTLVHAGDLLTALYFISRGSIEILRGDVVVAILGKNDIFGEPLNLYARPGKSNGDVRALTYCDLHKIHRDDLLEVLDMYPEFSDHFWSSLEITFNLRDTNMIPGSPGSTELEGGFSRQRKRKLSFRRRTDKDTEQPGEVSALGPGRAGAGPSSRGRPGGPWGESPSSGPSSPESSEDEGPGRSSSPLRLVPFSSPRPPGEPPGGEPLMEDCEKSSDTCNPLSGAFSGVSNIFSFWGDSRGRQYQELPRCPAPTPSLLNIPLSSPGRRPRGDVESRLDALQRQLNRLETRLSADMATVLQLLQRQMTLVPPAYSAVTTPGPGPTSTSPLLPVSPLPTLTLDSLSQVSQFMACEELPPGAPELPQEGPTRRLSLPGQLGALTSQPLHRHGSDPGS

A short description of data set [4]: Solubility in pH 7 solution. Type of data set: physicochemical.
For data set [5], the system named is Rattus norvegicus. In words: Ex-vivo P2X7 receptor occupancy in Sprague-Dawley rat brain assessed as inhibition of [3H]A804598 binding at 10 mg/kg, po after 2 hrs by autoradiographic analysis. Type of data set: functional.
Data set [6] in a line: Drug level in plasma of Sprague-Dawley rat at 10 mg/kg, after 0.5 hrs.
Data set [7] is described as follows: Drug level in plasma of Sprague-Dawley rat at 10 mg/kg, sc after 2 hrs.
The nature of data set [8]: Drug level in brain of Sprague-Dawley rat at 10 mg/kg, sc after 0.5 hrs. The settings on record: read-out: Drug uptake.
The test system of data set [9] is Rattus norvegicus. In words: Ex-vivo P2X7 receptor occupancy in Sprague-Dawley rat brain assessed as inhibition of [3H]A804598 binding at 10 mg/kg, sc after 0.5 hrs by autoradiographic analysis.
Data set [10] in a line: Apparent permeability from apical to basolateral side in human Caco2 cells. It is filed as ADME, cell-based. The settings on record: Caco-2. A general note: Caco-2 monolayers are a common model of the intestinal barrier.
Data set [11] in a line: Apparent permeability from basolateral to apical side in human Caco2 cells. Type of data set: ADME, cell-based. The settings on record: Caco-2.
A short description of data set [12]: Protein binding in rat brain. Type of data set: ADME, tissue-based. The settings on record: read-out: PB (converted).
In data set [13] the test system is Rattus norvegicus. In words: Ex-vivo P2X7 receptor occupancy in Sprague-Dawley rat brain assessed as inhibition of [3H]A804598 binding at 30 mg/kg, po after 0.5 hrs by autoradiographic analysis. It is filed as functional.
A short description of data set [14]: Drug level in plasma of Sprague-Dawley rat at 30 mg/kg, po after 0.5 hrs. It is filed as ADME, organism-based.
Data set [15] is described as follows: Drug level in brain of Sprague-Dawley rat at 30 mg/kg, po after 0.5 hrs. It is filed as ADME, organism-based. The settings on record: read-out: Drug uptake.
For data set [16], the system named is Rattus norvegicus. In words: Ex-vivo P2X7 receptor occupancy in Sprague-Dawley rat brain assessed as inhibition of [3H]A804598 binding at 30 mg/kg, po after 2 hrs by autoradiographic analysis. It is filed as functional.
Data set [17] is described as follows: Drug level in plasma of Sprague-Dawley rat at 30 mg/kg, po after 2 hrs. It is filed as ADME, organism-based.
Data set [18] is described as follows: Drug level in brain of Sprague-Dawley rat at 30 mg/kg, po after 2 hrs. Type of data set: ADME, organism-based. The following applies: read-out: Drug uptake.

Consider `C[C@H]1Cn2c(nnc2-c2cnccn2)CN1C(=O)c1cccc(C(F)(F)F)c1Cl`, for which the fraction unbound in data set [1] and in data set [2] was 0.302 each time.
What is called IC50 is the concentration at which inhibition is half-maximal. A higher IC50 goes with weaker potency. For orientation: solubility means the concentration that dissolves in the medium under given conditions. Low readings indicate little dissolved substance, high ones much dissolved substance. On to `COc1ccnc(-c2nnc3n2C[C@H](C)N(C(=O)c2cccc(Cl)c2Cl)C3)c1`, for which the IC50 in data set [3] is > 10 µM. The fraction unbound was 0.174 in data set [1] and 0.07 in data set [2]. The concentration in solution in [4] (solubility) was 260 µM (≈ 109 µg/mL). Besides, the Occ was determined as 71% with Rattus norvegicus [5] and 78% in the data set with Rattus norvegicus [9]. Besides, the concentration at 0.5 h in data set [6] was determined as 1080 ng/mL; in [8], 3880 ng/mL. In data set [7], this molecule gave a concentration at 2 h of 374 ng/mL.
For orientation: Papp A→B means the apparent permeability from the apical to the basolateral side of a cell layer. As a reminder, the Papp B→A is how fast a substance crosses the layer from the basolateral side. On to `C[C@H]1Cn2c(nnc2-c2ccc(F)cc2)CN1C(=O)c1cccc(C(F)(F)F)c1Cl`, for which, in data set [10], the Papp A→B was determined as 37.3 ×10⁻⁶ cm/s. In addition, the Papp B→A in [11] came to 53.2 ×10⁻⁶ cm/s. In addition, the fraction unbound in [1] is 0.131; in data set [2], 0.078; in data set [12], 0.07. Besides, the Occ in the data set on Rattus norvegicus [13] is 89%; in the data set with Rattus norvegicus [16], 73%. For the same molecule, the concentration at 0.5 h was found to be 1460 ng/mL in [14] and 6740 ng/mL in data set [15]. Moreover, the concentration at 2 h worked out at 2680 ng/mL in data set [17] and 12600 ng/mL in [18].
For the molecule `C[C@H]1Cn2c(nnc2-c2ccccn2)CN1C(=O)c1cccc(Cl)c1Cl`, the values for the fraction unbound in [1] and in data set [2] were 0.51 and 0.449, respectively.
For `C[C@@H]1c2nnc(-c3ccccn3)n2CCN1C(=O)c1cccc(Cl)c1Cl`, the IC50 in data set [3] is > 10 µM. In addition, the Papp A→B in data set [10] stood at 73.4 ×10⁻⁶ cm/s. Moreover, in [11], the basolateral-to-apical permeability (Papp B→A) was found to be 52.1 ×10⁻⁶ cm/s. Besides, the fraction unbound in [1] was 0.175; in [2] it was 0.069; in [12], 0.11. Besides, the solubility in data set [4] is > 400 µM. For the same molecule, the Occ in the data set with Rattus norvegicus [13] worked out at 68%; in the data set with Rattus norvegicus [16], 56%. In addition, the concentration at 0.5 h in data set [14] was 2520 ng/mL; in data set [15] it was 5510 ng/mL. For the same molecule, the results for the concentration at 2 h in data set [17] and in [18] were 942 ng/mL and 2500 ng/mL, respectively.
Regarding `C[C@H]1Cn2c(nnc2-c2ccc(F)cc2)CN1C(=O)c1cccc(Cl)c1Cl`, in data set [10], the Papp A→B was determined as 43.3 ×10⁻⁶ cm/s. Also, the Papp B→A in data set [11] amounted to 41.6 ×10⁻⁶ cm/s. Also, the results for the fraction unbound in data set [1], in [2] and in data set [12] were 0.115, 0.078 and 0.09, respectively. The concentration in solution in [4] (solubility) was 158 µM (≈ 64 µg/mL). For the same molecule, the Occ with Rattus norvegicus [13] came out at 92%; in the data set on Rattus norvegicus [16], 5%. Also, the concentration at 0.5 h in data set [14] came to 252 ng/mL; in [15], 1560 ng/mL. Further, the values for the concentration at 2 h in data set [17] and in data set [18] were 27 ng/mL and 142 ng/mL, respectively.
As to `C[C@H]1Cn2c(nnc2-c2cc(F)ccn2)CN1C(=O)c1cccc(Cl)c1Cl`, the fraction unbound in data set [1] was 0.254; in [2], 0.09. Further, the solubility in [4] was 350 µM (≈ 142 µg/mL).
